Experimental data published in PMC4814829, “Design, synthesis, crystallization and biological evaluation of new symmetrical biscationic compounds as selective inhibitors of human Choline Kinase α1 (ChoKα1)” (Scientific Reports, 2016).

Key:
HeLa cells [1] = assay: Trypan blue exclusion assay; format: cell-based, human; details: concentration-dependent
Protocol: (§1) Human T-cell leukemia (Jurkat), human B-cell leukemia (RS 4,11) and human promyelocytic leukemia (HL-60) cells were grown in RPMI-1640 medium (Gibco, Milan, Italy). Breast adenocarcinoma (MCF-7 and MDA-MB-231), human non-small cell lung carcinoma (A549), human cervix carcinoma (HeLa), human prostate adenocarcinoma (PC-3), and human colon adenocarcinoma (HT-29) cells were grown in DMEM medium (Gibco, Milan, Italy). Both media were supplemented with 115 units/mL of penicillin G (Gibco, Milan, Italy), 115 μg/mL of streptomycin (Invitrogen, Milan, Italy) and 10% fetal bovine serum (Invitrogen, Milan, Italy). Stock solutions (10 mM) of the different compounds were obtained by dissolving them in DMSO. Individual wells of 96-well tissue-culture microtiter plates were inoculated with 100 μL of complete medium containing 8 × 10^3 cells. The plates were incubated at 37 °C in a humidified 5% CO2 incubator for 18 h prior to the experiments. After medium removal, 100 μL of fresh medium containing the test compound at different concentrations was added to each well and incubated at 37 °C for 72 h. The percentage of DMSO in the medium in no case exceeded 0.25%.

MDA-MB-231 cells [2] = assay: Trypan blue exclusion assay; format: cell-based, human; details: MDA-MB-231, concentration-dependent
Protocol: as §1

MDA-MB-231 cells [3] = assay: Annexin-V/PI assay; format: cell-based, human; details: MDA-MB-231, 72 h; positive controls Cis-Pt 50 μM, Etoposide 5 μM
Protocol: (§2) Surface exposure of PS on apoptotic cells was measured by flow cytometry with Cytomics FC500 (Beckman Coulter) by adding simultaneously annexin-V conjugated to fluorescein isothiocyanate (FITC) and PI to cells according to the manufacturer′s instructions (Annexin-V Fluos, Roche Diagnostic).

Jurkat cells [4] = assay: Annexin-V/PI assay; format: cell-based, human; details: 72 h, positive controls Cis-Pt 50 μM, Etoposide 5 μM
Protocol: as §2

MCF-7 cells [5] = assay: Annexin-V/PI assay; format: cell-based, human; details: MCF-7, 72 h; positive controls Cis-Pt 50 μM, Etoposide 5 μM
Protocol: as §2

purified human ChoKα1 = purified human ChoKα1 (Homo sapiens, UniProt P35790); assay: Determination of human choline kinase α1 activity ([methyl-14C]choline incorporation into phosphocholine); format: biochemical; details: mean ± SEM, three independent experiments; read-out: IC50 ChoKα1 purified
Protocol: The effect of the different inhibitors on human choline kinase (ChoK) was assayed in ChoKα1 purified as previously described[32]. In each experiment DMSO-assays were always run in parallel as a control. DMSO in no case exceeded a concentration of 0.1% in order to avoid unspecific ChoK inhibition. ChoK activity was assayed by measuring the rate of incorporation of ^14C from [methyl-^14C]choline into phosphocholine both in the presence or absence of different inhibitor concentrations. Briefly, the final reaction mixture contained 100 mM Tris (pH 8.5), 10 mM MgCl2, and 10 mM ATP, and 20 ng of purified ChoKα1. […] The assay was stopped by immersing the reaction tubes in boiling water for 3 min. Aliquots of the reaction mixture were applied to the origin of Silica Gel plates in the presence of phosphocholine (0.1 mg) and choline (0.1 mg) as carriers. The chromatography was developed in methanol/0.6% NaCl/28% NH4OH in water (50:50:5, v/v/v) as solvent. Phosphocholine was visualized under exposure to iodine vapor and the corresponding spot was scraped and transferred to scintillation vials for measurement of radioactivity by a Beckman 6000-TA (Madrid, Spain) liquid-scintillation counter. At least three experiments were performed in all assays.

[6] = system: panel of nine different human tumor-cell lines; assay: Antiproliferative activity against the panel of nine human tumor-cell lines; format: cell-based; details: Homo sapiens; range or bound over all tested cell lines; read-out: GI50 across the tumor-cell line panel
Protocol: as §1

MDA-MB-231 cells [7] = assay: Cell-cycle distribution analysis (PI, flow cytometry); format: cell-based, human
Protocol: [The source words this procedure for another cell line and reports this cell line under the same test.] (§3) For flow-cytometric analysis of the DNA content, 5 × 10^5 HeLa or Jurkat cells in exponential growth were treated with different concentrations of the test compounds for 24 and 48 h. After the incubation period, the cells were collected, centrifuged, and fixed with ice-cold ethanol (70%). The cells were then treated with lysis buffer containing RNAse A and 0.1% Triton X-100, and then stained with propidium iodide (PI). Samples were analyzed in a Cytomics FC500 flow cytometer (Beckman Coulter). DNA histograms were analyzed using MultiCycle for Windows (Phoenix Flow Systems).

Jurkat cells [8] = assay: as above; format: cell-based, human
Protocol: as §3

MCF-7 cells [9] = assay: as above; format: cell-based, human
Protocol: [The source words this procedure for another cell line and reports this cell line under the same test.] as §3

Human fibroblasts = assay: Antiproliferative assay in non-tumoral cells; format: cell-based; details: Fibroblast, mean ± SEM
Description: Human fibroblasts from foreskin were isolated as previously described[58] and maintained in DMEM medium with 10% fetal bovine serum added.

Jurkat cells [10] = assay: Trypan blue exclusion assay; format: cell-based, human
Protocol: Human T-cell leukemia (Jurkat), human B-cell leukemia (RS 4,11) and human promyelocytic leukemia (HL-60) cells were grown in RPMI-1640 medium (Gibco, Milan, Italy). Breast adenocarcinoma (MCF-7 and MDA-MB-231), human non-small cell lung carcinoma (A549), human cervix carcinoma (HeLa), human prostate adenocarcinoma (PC-3), and human colon adenocarcinoma (HT-29) cells were grown in DMEM medium (Gibco, Milan, Italy). […] Stock solutions (10 mM) of the different compounds were obtained by dissolving them in DMSO. Individual wells of 96-well tissue-culture microtiter plates were inoculated with 100 μL of complete medium containing 8 × 10^3 cells. The plates were incubated at 37 °C in a humidified 5% CO2 incubator for 18 h prior to the experiments. […] In additional experiments, cell viability was also determined by calculating the values of trypan blue positive cells (dead cells) and trypan blue negative (live cells) from a mixture of the cell suspension and 0.4% trypan blue solution. page 7: S-7 0 24 48 72 0.0 2.0x10 5 4.0x10 5 6.0x10^5 Cells/ml Time ([…] Figure S5 […] washed, counted, and incubated in a drug-free medium. After a further 72 h of incubation, cell viability was analyzed by trypan blue exclusion assay as described in the experimental section. (1 picture or pasted object on this page, not shown here)

HeLa cells [11] = assay: Antiproliferative MTT assay; format: cell-based; details: Homo sapiens, 72 h, mean ± SEM
Protocol: as §1

MDA-MB-231 cells [12] = assay: Antiproliferative MTT assay; format: cell-based; details: Homo sapiens, 72 h, mean ± SEM
Protocol: as §1

HT-29 cells = assay: Antiproliferative MTT assay; format: cell-based; details: Homo sapiens, 72 h, mean ± SEM
Protocol: as §1

Jurkat cells [13] = assay: Antiproliferative MTT assay; format: cell-based; details: Homo sapiens, 72 h, mean ± SEM
Protocol: as §1

MCF-7 cells [14] = assay: Antiproliferative MTT assay; format: cell-based; details: Homo sapiens, MCF7, 72 h, mean ± SEM
Protocol: as §1

A549 cells = assay: Antiproliferative MTT assay; format: cell-based; details: Homo sapiens, 72 h, mean ± SEM
Protocol: as §1

HL-60 cells = assay: Antiproliferative MTT assay; format: cell-based; details: Homo sapiens, 72 h, mean ± SEM
Protocol: as §1

RS4,11 cells = assay: Antiproliferative MTT assay; format: cell-based; details: Homo sapiens, 72 h, mean ± SEM
Protocol: as §1

PC-3 cells = assay: Antiproliferative MTT assay; format: cell-based; details: Homo sapiens, 72 h, mean ± SEM
Protocol: as §1

Sequence of purified human ChoKα1 (P35790 whole entry): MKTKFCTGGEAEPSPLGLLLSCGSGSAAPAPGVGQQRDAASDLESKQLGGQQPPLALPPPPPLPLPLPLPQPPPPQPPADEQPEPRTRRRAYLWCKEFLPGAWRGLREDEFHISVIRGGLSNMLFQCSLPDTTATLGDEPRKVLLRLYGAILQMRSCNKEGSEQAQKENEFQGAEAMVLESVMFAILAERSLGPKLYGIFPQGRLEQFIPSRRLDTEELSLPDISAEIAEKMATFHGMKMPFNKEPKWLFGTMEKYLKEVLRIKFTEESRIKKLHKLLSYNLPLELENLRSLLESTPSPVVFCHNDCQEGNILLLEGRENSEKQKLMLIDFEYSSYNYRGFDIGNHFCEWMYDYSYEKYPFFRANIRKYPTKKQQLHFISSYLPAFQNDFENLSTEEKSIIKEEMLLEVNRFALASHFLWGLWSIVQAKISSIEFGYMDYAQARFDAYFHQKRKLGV

IC50 (purified human ChoKα1): 1000 ± 10 nM
GI50 [6]: 27 to 120 nM
GI50 (HeLa cells [11]): 79 ± 24 nM
GI50 (MDA-MB-231 cells [12]): 100 ± 50 nM
GI50 (HT-29 cells): 110 ± 10 nM
GI50 (Jurkat cells [13]): 120 ± 80 nM
GI50 (MCF-7 cells [14]): 92 ± 19 nM
GI50 (A549 cells): 27 ± 10 nM
GI50 (HL-60 cells): 100 ± 40 nM
GI50 (RS4,11 cells): 45 ± 5 nM
GI50 (PC-3 cells): 51 ± 10 nM
SMILES: CN(C)c1cc[n+](Cc2ccc(OCCOc3ccc(C[n+]4ccc(N(C)C)cc4)cc3)cc2)cc1.[Br-].[Br-] [Compound 10a, 1,1′-(((ethane-1,2-diylbis(oxy))bis(4,1-phenylene))bis(methylene))bis(4-(dimethylamino)pyridinium) bromide]
Cell growth by trypan blue count (HeLa cells [1]): significantly inhibited cell growth
Cell growth by trypan blue count (MDA-MB-231 cells [2]): significantly inhibited cell growth
Apoptotic cells (annexin-V/PI) (MDA-MB-231 cells [3]): not to be significantly different from that of the untreated cells
Apoptotic cells (annexin-V/PI) (Jurkat cells [4]): modest increment in apoptotic cells
Apoptotic cells (annexin-V/PI) (MCF-7 cells [5]): not to be significantly different from that of the untreated cells
Cells with hypodiploid DNA content (apoptotic cells by cell-cycle analysis) (MDA-MB-231 cells [7]; MDA-MB-231): not detected
Cell-cycle effect (G1 phase) (MDA-MB-231 cells [7]; MDA-MB-231, 24 h, concentration-dependent): induced a G1 arrest of the cell cycle
Cells with hypodiploid DNA content (apoptotic cells by cell-cycle analysis) (Jurkat cells [8]): not detected
Cell-cycle effect (G1 phase) (Jurkat cells [8]; 24 h, concentration-dependent): induced a G1 arrest of the cell cycle
Cells with hypodiploid DNA content (apoptotic cells by cell-cycle analysis) (MCF-7 cells [9]; MCF-7): not detected
Cell-cycle effect (G1 phase) (MCF-7 cells [9]; MCF-7, 24 h, concentration-dependent): induced a G1 arrest of the cell cycle
GI50 (Human fibroblasts): 5800 ± 1300 nM
Proliferation after washout of compound (Jurkat cells [10]; 72 h treatment, washed, further 72 h in drug-free medium): proliferation continued to be inhibited
Cell growth by trypan blue count (Jurkat cells [10]; concentration-dependent): significantly inhibited cell growth
